Reference: patent US20090197934A1, “IMIDAZOLINYLMETHYL ARYL SULFONAMIDE” (priority 2008, published 2009)

What was measured:
alpha-1A adrenoceptors = target: T1, alpha-1A adrenoceptors (Homo sapiens, UniProt P35348); experiment: alpha-1A adrenoceptor partial agonist activity (intrinsic activity and pEC50); format: cell-based
T1 sequence (P35348 1-466): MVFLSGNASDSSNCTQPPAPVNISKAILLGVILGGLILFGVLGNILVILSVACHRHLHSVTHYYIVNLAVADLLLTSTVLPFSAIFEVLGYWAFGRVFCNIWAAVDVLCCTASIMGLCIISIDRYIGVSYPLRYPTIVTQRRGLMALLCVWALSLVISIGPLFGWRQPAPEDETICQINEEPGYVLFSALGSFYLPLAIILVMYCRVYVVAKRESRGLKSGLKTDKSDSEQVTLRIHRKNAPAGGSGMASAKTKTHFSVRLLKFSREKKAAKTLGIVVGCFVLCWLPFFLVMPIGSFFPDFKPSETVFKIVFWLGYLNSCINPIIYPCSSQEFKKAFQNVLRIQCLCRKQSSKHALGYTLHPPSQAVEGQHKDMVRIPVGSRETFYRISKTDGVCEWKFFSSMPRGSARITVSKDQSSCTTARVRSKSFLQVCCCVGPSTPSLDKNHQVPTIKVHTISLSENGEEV

[1] = system: Female Yucatan Micro-Swine; experiment: Conscious Pig Model (IUP, MAP and HR during iv infusion); format: in vivo
Protocol: In general, IUP is the intraurethral pressure and is measured as the 2 minute mean from the first peak of the urethral response (FIG. 1). MAP is the mean arterial blood pressure and is measured as the average blood pressure during the 2 minute section where IUP is measured. The durability is the slope of the IUP response in mmHg/min and is calculated immediately after the 2 minute IUP response for 5 minutes (2-7 minutes post the first peak) for the top 3 doses.
Sling Training: Female Yucatan Micro-Swine were trained to stay in a sling for up to 4 hours. Swine were exposed to progressively longer sling durations per IACUC sling-training guideline.
Surgical Instrumentation: Female Yucatan Micro-swine were instrumented with a telemetry device with both pressure and ECG monitoring capabilities (Data Sciences International St Paul Minn.). In addition, a Bardport low profile titanium VAP was placed subcutanteously for blood sampling. All devices were implanted by the surgical veterinarian at Roche Palo Alto. Briefly, the telemetry probe body was placed subcutaneously in the cervical region. The intra-arterial pressure catheter was advanced via the superficial cervical artery into the subclavian artery for blood pressure measurement. The ECG leads were placed intra-muscularly: one in the intercostal muscle between the T8-T10 regions on the left side, and the other in the intercostal muscles between the T1-T3 regions on the right side. The VAP was placed subcutaneously in the neck region, with the catheter advanced into the jugular vein. Swine were allowed to fully recover from the surgery (typically 10 days). […]
Experiment: After the swine was fully awake and stable (usually approximately 1 hour post wake up), baseline blood pressure, IUP, and heart rate parameters were determined. […]
Data Generating and Analysis Systems: Cardiovascular readings were generated by the TL11M3-D70-PCP (Data Sciences International, St. Paul, Minn.) telemetry device and associated hardware. […] IUP was monitored by a solid state catheter connected to a TA6000 Polygraph (Data Sciences International, St. Paul, Minn.). […]

intrinsic activity, or efficacy, as a partial agonist (alpha-1A adrenoceptors; ideally between 0.35 to 0.60): 0.45
EC50 (alpha-1A adrenoceptors; read-out: affinity, or pEC50 value (converted)): 316 nM
Compound: CS(=O)(=O)Nc1cc(F)c(CC2=NCCN2)c(Br)c1Cl [Formula I, N-[3-Bromo-2-chloro-4-(4,5-dihydro-1H-imidazol-2-ylmethyl)-5-fluoro-phenyl]-methanesulfonamide]
maximum arterial blood pressure effect [1]: low
selectivity for enhancement of intraurethral pressure (IUP) over blood pressure (MAP) [1]: selectivity for enhancement of intraurethral pressure (IUP) over blood pressure (MAP)
durability of IUP response over time ([1]; compared to analogue compound lacking the 3-bromo and 5-fluoro substituents (FIG. 1b vs FIG. 1c)): unexpectedly increased durability of IUP response over time
